The values below come from patent US7759377B2, “Acylaminothiazole derivatives and use thereof as beta-amyloid inhibitors” (Sanofi-Aventis, priority 2004, dated 2010).

The target of this test is T1, gamma-secretase (Homo sapiens, UniProt P49768, M146L).
T1 construct: expressed in transfected cells; host or cells: CHO-K1, clone 30-12
Description: β-amyloid cellular test: inhibition of production of β-A4 peptide, ELISA of cellular supernatants. Type of test: cell-based. The following applies: CHO-K1 line coexpressing CT100 of APP and PS1 M146L clone 30-12; 24-25 h incubation; secreted amyloid peptide by ELISA. An excerpt:
For the β-amyloid cellular test, the CHO—K1 line coexpressing the CT100 of APP and PS1 M146L clone 30-12 is used. The line targets the inhibition of gamma-secretase. Presenilin is linked to gamma-secretase activity (Wolfe M S, Haass C., The Role of presenilins in gamma-secretase activity, J. Biol. Chem. 2001, 276(8): 5413-6) and its coexpression with the amyloid protein or its N-terminal fragment causes an increase in secretion of the peptide A1-42 (β-A4), thereby generating a pharmacological tool which allows inhibition by the compounds of formula (I) of the production of the β-A4 peptide to be evaluated. 96-well culture plates are inoculated with 1×10^5 cells per well in 150 μl of incubation medium. The presence of a minimum percentage (1.3% final) of serum allows cellular adhesion to the plastic after 2-3 hours of incubation at 37° C., in the presence of 5% CO2. The products (15 μl) are tested at 10 μM DMSO 1% final and are incubated for 24-25 h at 37° C. in the presence of 5% CO2 and 100% humidity. After this 24-25 h incubation, the cellular supernatants (100 μl) are transferred to ELISA plates, treated with the capture antibody 6E10 (6E10, epitope: aa1-17, INTERCHIM/SENETEK 320/10), to determine the amount of amyloid peptides secreted by the cells in the presence of compounds according to the invention. A series of synthetic control peptide, “peptide 1-40”, at 5 and 10 ng/ml is treated in parallel. The ELISA plates are incubated overnight at 4° C.
The quantity of bound peptide is detected indirectly in the presence of a competitor which corresponds to the truncated peptide, peptide 1-28 coupled to biotin, which is then detected with streptavidin coupled to alkaline phosphatase. The substrate, p-nitrophenyl phosphate (pNPP FAST p-Nitrophenyl Phosphate, Sigma N2770), gives a yellow, soluble reaction product which can be read at 405 nm. The reaction is stopped with 0.1 M EDTA solution. For this purpose, following binding of the amyloid peptide in the ELISA plate, 50 μl of biotinylated peptide 1-28 are added to 100 μl of cellular supernatant and incubated for 30 minutes at ambient temperature. The ELISA plates are then washed 3 times. After drying by inversion on absorbent paper, 100 μl of streptavidin-alkaline phosphatase (Interchim/Jackson ImmunoResearch Laboratories 016-050-084) are added per well and incubated for 1 hour at ambient temperature. The plates are washed again and then the alkaline phosphatase substrate (pNPP 1 mg/ml) is added in an amount of 100 μl per well. After 30 minutes of incubation at ambient temperature the reaction is stopped by adding 100 μl per well of 0.1 M EDTA and reading is carried out at 405 nm.
For orientation: ELISA stands for enzyme-linked immunosorbent assay.
In the case of `CCC[C@H](NC(=O)[C@@H](O)C(C)(C)C)C(=O)Nc1nc(-c2nc(-c3ccccc3)no2)c(C(C)C)s1` [Compound 7], the EC50 (as a rule, the midpoint of the concentration-response curve) was determined as 52 nM.

In the case of `CCC[C@H](NC(=O)[C@@H](O)C(C)(C)C)C(=O)Nc1ncc(-c2nnnn2Cc2ccccc2)s1` [Compound 51, 2-{2-(S)-[2-(S)-hydroxy(3,3-dimethyl)butyrylamino]pentanoyl}amino-5-(1-benzyl-1H-tetrazol-5-yl)thiazole], the EC50 was 94 nM. Take `CCC[C@H](NC(=O)[C@@H](O)C(C)(C)C)C(=O)Nc1nc(-c2nc3ccccc3o2)c(C(C)C)s1` [Compound 34, 2-{2-(S)-[2-(S)-hydroxy(3,3-dimethyl)butyrylamino]pentanoyl}amino-5-(1-methylethyl)-4-(1,3-benzoxazol-2-yl)thiazole]: the EC50 came to 42 nM. The value for `CCCC(NC(=O)C(O)c1cc(F)cc(F)c1)C(=O)Nc1nc(C)c(-c2nc(C)no2)s1` (stereo not shown) [Compound 40] was 85 nM.
